# Results published in patent US20130190407A1, “CALCIUM RECEPTOR-ACTIVE MOLECULES” (NPS Pharmaceuticals, Inc., priority 1991, published 2013).
# Columns and labels:
# Type in all cases: cell-based
# [1] = molecular target: T1, parathyroid cell calcium receptor (Bos taurus, UniProt P35384); test: Mobilization of intracellular Ca2+ ([Ca2+]i, fura-2) in bovine parathyroid cells; design: Parathyroid glands were obtained from freshly slaughtered calves (12-15 weeks old); endogenous in cells; host or cells: dissociated primary bovine (calf) parathyroid cells; conditions: Table 6; bovine parathyroid cells; read-out: EC50 PARATHYROID
# T1 sequence (P35384 20-1085): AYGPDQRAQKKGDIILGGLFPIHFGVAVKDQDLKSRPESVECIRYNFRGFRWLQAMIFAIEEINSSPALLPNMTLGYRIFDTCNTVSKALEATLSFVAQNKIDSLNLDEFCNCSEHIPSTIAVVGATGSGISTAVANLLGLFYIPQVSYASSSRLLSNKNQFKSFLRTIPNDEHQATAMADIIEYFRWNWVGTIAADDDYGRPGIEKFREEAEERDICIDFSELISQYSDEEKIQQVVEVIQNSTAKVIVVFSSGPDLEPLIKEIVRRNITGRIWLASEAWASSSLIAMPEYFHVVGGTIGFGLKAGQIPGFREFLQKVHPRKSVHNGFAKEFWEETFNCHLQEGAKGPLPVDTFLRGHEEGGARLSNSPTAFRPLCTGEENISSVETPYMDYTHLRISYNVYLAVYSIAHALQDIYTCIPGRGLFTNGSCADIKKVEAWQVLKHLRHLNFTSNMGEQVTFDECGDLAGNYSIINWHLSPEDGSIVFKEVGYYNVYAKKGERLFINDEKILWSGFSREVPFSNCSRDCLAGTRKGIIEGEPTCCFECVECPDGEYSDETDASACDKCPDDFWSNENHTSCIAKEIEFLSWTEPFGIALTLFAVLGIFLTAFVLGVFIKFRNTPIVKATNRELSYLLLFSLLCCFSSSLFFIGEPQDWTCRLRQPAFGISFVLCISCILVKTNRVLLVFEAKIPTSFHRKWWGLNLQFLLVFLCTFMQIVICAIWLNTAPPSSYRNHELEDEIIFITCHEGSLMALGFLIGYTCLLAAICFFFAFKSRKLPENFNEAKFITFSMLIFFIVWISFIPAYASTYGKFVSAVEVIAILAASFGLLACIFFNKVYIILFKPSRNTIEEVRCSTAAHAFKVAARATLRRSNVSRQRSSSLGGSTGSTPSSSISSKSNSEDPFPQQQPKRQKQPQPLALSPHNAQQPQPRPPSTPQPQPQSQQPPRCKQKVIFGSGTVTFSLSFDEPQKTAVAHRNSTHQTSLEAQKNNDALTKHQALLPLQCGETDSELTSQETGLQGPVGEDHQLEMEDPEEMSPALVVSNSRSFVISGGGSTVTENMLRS
# Procedure: This section describes procedures used to obtain and treat parathyroid cells from calves and humans. […] Human parathyroid glands, were obtained from patients undergoing surgical removal of parathyroid tissue for primary or uremic hyperparathyroidism (uremic HPT), and were treated similarly to bovine tissue.
# Glands were trimmed of excess fat and connective tissue and then minced with fine scissors into cubes approximately 2-3 mm on a side. Dissociated parathyroid cells were prepared by collagenase digestion and then purified by centrifugation in Percoll buffer. The resultant parathyroid cell preparation was essentially devoid of red blood cells, adipocytes, and capillary tissue as assessed by phase contrast microscopy and Sudan black B staining. Dissociated and purified parathyroid cells were present as small clusters containing 5 to 20 cells.
# The cells were then pelleted, resuspended in the same buffer, but lacking the ester, and incubated a further 15 minutes at 37° C. The cells were subsequently washed twice with PCB containing 0.5 mM CaCl2 and 0.5% BSA and maintained at room temperature (about 20° C.) Immediately before use, the cells were diluted five-fold with prewarmed 0.5 mM CaCl2-PCB to obtain a final BSA concentration of 0.1%. The concentration of cells in the cuvette used for fluorescence recording was 1−2×10^6/ml.
# The fluorescence of indicator-loaded cells was measured at 37° C. in a spectrofluorimeter (Biomedical Instrumentation Group, University of Pennsylvania, Philadelphia, Pa.) equipped with a thermostated cuvette holder and magnetic stirrer using excitation and emission wavelengths of 340 and 510 nm, respectively. […] Leakage of dye is dependent on temperature and most occurs within the first 2 minutes after warming the cells in the cuvette. Dye leakage increases only very slowly thereafter. To correct the calibration for dye leakage, cells were placed in the cuvette and stirred at 37° C. for 2-3 minutes. The cell suspension was then removed, the cells pelleted, and the supernatant returned to a clean cuvette. […] This estimate was subtracted from the apparent Fmin.
# [2] = molecular target: T1, parathyroid cell calcium receptor; test: Cl- current in Xenopus oocytes injected with bovine parathyroid cell poly(A)+-mRNA; design: Whole pieces of gland were used to prepare mRNA that directs the expression of the calcium receptor in Xenopus oocytes; expressed in transfected cells; host or cells: Xenopus laevis oocytes injected with total poly(A)+ mRNA from bovine parathyroid glands; conditions: 100 μM
# Procedure: (§1) Following incubation, an oocyte was placed into a 100-μl plastic chamber and superfused with MBS at a flow rate of 0.5 ml/min using a peristaltic pump. Test molecules or inorganic polycations were added by rapidly moving the tubing into different buffers. Recording and current-passing electrodes were constructed from thin-wall capillary tubing pulled to a resistance of 1-3 Mohms and filled with 3 M KCl. […] Currents were recorded directly onto a strip chart recorder.
# Dissociated bovine parathyroid cells were used to further explore the mechanism of action of NPS R-467 at the receptor level. […] It does, however, elicit responses in parathyroid cells and in oocytes when a small amount of extracellular Ca^2+ is present.
# [3] = molecular target: T2, osteoclast calcium receptor (Rattus norvegicus, UniProt P48442); test: [Ca2+]i (indo-1) in single rat osteoclasts
# T2 sequence (P48442 20-1079): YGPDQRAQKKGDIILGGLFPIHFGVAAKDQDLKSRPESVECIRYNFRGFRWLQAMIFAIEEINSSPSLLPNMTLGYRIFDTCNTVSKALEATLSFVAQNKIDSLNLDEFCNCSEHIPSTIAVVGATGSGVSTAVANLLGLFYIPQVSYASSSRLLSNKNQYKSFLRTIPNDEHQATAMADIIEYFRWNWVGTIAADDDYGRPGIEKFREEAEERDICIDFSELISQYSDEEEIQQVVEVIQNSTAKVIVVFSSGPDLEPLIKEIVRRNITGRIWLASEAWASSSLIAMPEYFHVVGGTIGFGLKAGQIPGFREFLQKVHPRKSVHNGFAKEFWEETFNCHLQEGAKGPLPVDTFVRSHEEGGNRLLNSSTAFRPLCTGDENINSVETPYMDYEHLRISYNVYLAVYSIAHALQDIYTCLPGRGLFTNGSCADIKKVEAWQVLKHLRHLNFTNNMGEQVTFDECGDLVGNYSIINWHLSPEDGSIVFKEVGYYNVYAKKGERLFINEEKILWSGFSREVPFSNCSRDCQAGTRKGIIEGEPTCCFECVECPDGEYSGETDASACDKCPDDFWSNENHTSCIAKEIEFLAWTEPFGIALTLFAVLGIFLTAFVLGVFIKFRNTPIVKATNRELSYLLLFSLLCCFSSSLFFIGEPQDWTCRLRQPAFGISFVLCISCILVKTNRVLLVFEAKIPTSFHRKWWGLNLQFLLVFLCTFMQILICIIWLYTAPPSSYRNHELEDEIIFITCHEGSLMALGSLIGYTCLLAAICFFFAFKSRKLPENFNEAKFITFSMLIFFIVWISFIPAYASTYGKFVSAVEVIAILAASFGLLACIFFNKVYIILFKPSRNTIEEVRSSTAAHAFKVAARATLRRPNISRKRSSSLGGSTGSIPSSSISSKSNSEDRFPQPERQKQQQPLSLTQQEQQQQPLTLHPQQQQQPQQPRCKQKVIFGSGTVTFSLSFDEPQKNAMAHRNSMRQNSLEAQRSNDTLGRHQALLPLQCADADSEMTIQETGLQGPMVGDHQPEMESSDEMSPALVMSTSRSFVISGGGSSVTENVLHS
# [4] = molecular target: T3, bovine parathyroid cell calcium receptor (Bos taurus, UniProt P35384); test: Cl- current in Xenopus oocytes injected with BoPCaR 1
# T3 construct: isolation of a single clone (BoPCaR 1) with a cDNA insert of 5.3 kb; expressed in transfected cells
# T3 sequence (P35384 20-1085): T1 sequence (P35384 20-1085)
# Procedure: Several pharmacological and biochemical criteria were used to identify this clone as encoding a bona fide bovine parathyroid Ca^2+ receptor. […] These responses increased markedly over a period of one to four days after injection of the eggs with cRNA prepared from the BoPCaR 1 cDNA. Furthermore, the ranges of the concentrations of the two cations eliciting this response were very similar to those shown previously to act on bovine parathyroid cells in vitro.
# Xenopus oocytes were injected with BoPCaR 1, the 5.3 Kb cDNA encoding a bovine parathyroid cell calcium receptor as described in Example 25. After two to three days, Cl^− currents were examined in the oocytes using a two-electrode voltage clamp.
# Xenopus oocytes were injected with BoPCaR 1 as described in Example 25. After two to three days, Cl^− currents were examined in the oocytes using two electrode voltage clamp.
# calcium receptor = molecular target: T4, calcium receptor (Homo sapiens, UniProt P41180); test: Cl- current in Xenopus oocytes injected with human parathyroid cell mRNA; conditions: hexacyclen 135 μM, neomycin 100 μM, NPS 382 5 mM
# T4 construct: poly(A)^+-enriched mRNA from human parathyroid tissue (hyperplastic glands from a case of secondary HPT); expressed in transfected cells; host or cells: Xenopus laevis oocytes injected with poly(A)+ mRNA from hyperplastic human parathyroid glands
# T4 sequence (P41180 20-1078): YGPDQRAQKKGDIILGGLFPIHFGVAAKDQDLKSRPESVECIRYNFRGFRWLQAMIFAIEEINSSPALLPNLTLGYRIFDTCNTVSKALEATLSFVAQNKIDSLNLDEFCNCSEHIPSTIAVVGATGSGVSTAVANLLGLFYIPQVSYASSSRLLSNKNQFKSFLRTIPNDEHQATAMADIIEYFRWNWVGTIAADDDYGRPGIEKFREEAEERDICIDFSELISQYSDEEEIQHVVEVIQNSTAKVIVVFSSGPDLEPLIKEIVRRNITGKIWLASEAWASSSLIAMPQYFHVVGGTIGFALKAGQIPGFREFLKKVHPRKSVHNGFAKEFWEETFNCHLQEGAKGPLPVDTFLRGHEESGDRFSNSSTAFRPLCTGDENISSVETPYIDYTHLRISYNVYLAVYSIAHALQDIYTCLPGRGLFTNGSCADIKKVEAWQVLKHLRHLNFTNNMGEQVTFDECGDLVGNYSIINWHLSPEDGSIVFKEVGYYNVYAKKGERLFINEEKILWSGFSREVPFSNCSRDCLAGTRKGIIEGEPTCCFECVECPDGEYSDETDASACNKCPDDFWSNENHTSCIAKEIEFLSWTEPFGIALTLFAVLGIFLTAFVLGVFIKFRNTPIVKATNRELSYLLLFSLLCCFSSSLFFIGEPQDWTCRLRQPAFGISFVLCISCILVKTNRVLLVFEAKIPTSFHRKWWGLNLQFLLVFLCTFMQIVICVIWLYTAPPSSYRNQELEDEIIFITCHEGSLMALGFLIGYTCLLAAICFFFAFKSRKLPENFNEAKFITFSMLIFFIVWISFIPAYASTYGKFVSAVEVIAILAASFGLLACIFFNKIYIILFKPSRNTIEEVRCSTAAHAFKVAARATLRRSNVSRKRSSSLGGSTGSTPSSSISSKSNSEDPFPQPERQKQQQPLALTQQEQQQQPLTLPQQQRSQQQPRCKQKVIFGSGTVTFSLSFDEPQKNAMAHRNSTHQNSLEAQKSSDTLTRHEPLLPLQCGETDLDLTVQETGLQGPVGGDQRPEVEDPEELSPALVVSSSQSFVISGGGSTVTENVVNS
# Procedure: Oocytes were injected with poly(A)^+-enriched mRNA from human parathyroid tissue (hyperplastic glands from a case of secondary HPT).
# as §1
# Using this screen allows one to test for an action directly on the calcium receptor. Oocytes expressing the calcium receptor also responded to several molecules active on intact parathyroid cells when screened as follows. […] This offers rather compelling evidence showing that these molecules act on the calcium receptor or on some other protein intimately associated with its function.
# Bovine parathyroid cells = conditions: 10 μM isoproterenol 15 min; no pertussis toxin; 2.0 mM Ca2+, 200 μM spermine, 30 μM neomycin B, 2 μg/ml protamine; mean ± SEM
# Procedure: This section describes measuring cyclic AMP levels. Cells were incubated as above for PTH secretion studies and at the end of the incubation, a 0.15-ml sample was taken and transferred to 0.85 ml of hot (70° C.) water and heated at this temperature for 5-10 minutes. The tubes were subsequently frozen and thawed several times and the cellular debris sedimented by centrifugation. Portions of the supernatant were acetylated and cyclic AMP concentrations determined by radioimmunoassay.
# Bovine parathyroid cells were cultured for 16 hours with or without 100 ng/ml pertussis toxin. […] Each value is the mean±SEM of three experiments.
structure (smiles),measurement,setting,value
"CC(NCCC(c1ccccc1)c1ccccc1)c1ccccc1 (racemic) [Fendiline, fendiline]",EC50,[1],15 µM
same,Cl- current,[2],elicits oscillatory increases in Cl^− current
"NCCCNCCCCNCCCNCCCN(O)CCCNC(=O)Cc1c[nH]c2ccccc12 [NPS 017, Agatoxin 489]",EC50 OSTEOCLAST,"[3]; Table 6, rat osteoclasts, indo-1",inactive
same,Cl- current,[4]; 1 mM extracellular Ca2+,oscillatory increases in the Cl^− current
"NCCCN(CCCN)CCCNCCCCNCCCN(CCCN)CCCN [NPS 382, N^1, N^1, N^5, N^14, N^14-tetrakis-(3-aminopropyl)spermine]",mobilization of intracellular Ca2+ in oocytes,calcium receptor,effective
COc1cccc([C@H](C)NCCCc2ccccc2Cl)c1 [NPS S-568],concentration eliciting Cl- current responses,[4],100 µM
"NCCCCNCCCN [Spermidine, spermidine]",compounds that caused any large increase in [Ca2+]i,[3],none
"NCCCNCCCCNCCCN [Spermine, spermine]","cyclic AMP (% of control), control",Bovine parathyroid cells,23 ± 5 % of control
